Measurements reported in US20130109682A1, “CYCLIC ETHER COMPOUNDS USEFUL AS KINASE INHIBITORS” (NOVARTIS AG, priority 2010, published 2013).
Like-named read-outs stand apart in the source and are kept apart here.

What was measured:
Assay type in all cases: biochemical
GSK3β = GSK3β (Homo sapiens, UniProt P49841); test: GSK3β ATP depletion assay; conditions: ATP depletion assay; read-out: GSK3b IC50
Method in brief: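 Kinase activity is read as ATP consumption: luciferase luminescence reports the ATP remaining once roughly half of the 2 μM ATP is used. Reaction mix: 5 nM GSK3β, 10 μM b-CREB peptide, 50 mM Tris pH 7.5, 15 mM MgCl2, 1 mM DTT, 0.1% BSA, 2.5% DMSO. Enzyme and peptide are preincubated 15 min before ATP is added.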

FLT3D835Y kinase = molecular target: T1, FLT3D835Y kinase (Homo sapiens, UniProt P36888, D835Y); test: FLT3D835Y kinase inhibition assay (LanthaScreen TR-FRET); conditions: read-out: FLT3 IC50
T1 sequence (P36888 27-993 D835Y): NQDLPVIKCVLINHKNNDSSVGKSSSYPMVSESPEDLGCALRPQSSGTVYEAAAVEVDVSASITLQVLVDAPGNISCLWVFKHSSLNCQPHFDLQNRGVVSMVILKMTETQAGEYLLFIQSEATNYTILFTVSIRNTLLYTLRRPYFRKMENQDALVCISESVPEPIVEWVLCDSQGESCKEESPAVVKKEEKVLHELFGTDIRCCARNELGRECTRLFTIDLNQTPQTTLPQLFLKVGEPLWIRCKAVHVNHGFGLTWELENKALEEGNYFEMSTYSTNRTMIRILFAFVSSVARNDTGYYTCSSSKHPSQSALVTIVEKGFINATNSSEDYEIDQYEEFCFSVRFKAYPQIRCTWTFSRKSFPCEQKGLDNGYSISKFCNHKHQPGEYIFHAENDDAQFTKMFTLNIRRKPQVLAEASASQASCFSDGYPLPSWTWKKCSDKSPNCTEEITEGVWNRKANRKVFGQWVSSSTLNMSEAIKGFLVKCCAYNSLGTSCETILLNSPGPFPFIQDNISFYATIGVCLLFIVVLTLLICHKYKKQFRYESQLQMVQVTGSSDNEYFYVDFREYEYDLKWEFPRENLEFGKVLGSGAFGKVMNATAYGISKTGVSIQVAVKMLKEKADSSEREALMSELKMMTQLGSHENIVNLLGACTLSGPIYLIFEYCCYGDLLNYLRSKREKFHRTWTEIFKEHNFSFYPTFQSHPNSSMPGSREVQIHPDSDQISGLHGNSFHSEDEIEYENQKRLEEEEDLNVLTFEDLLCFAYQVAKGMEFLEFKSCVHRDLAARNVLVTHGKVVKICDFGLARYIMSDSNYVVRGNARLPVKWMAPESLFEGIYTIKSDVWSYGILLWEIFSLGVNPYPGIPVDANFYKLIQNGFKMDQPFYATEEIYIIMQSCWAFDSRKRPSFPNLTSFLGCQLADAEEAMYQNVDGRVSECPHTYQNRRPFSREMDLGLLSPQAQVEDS
Procedure: FLT3D835Y Kinase Inhibition Assay
LanthaScreen™ is the detection of Time-Resolved Fluorescence Resonance Energy Transfer (TR-FRET) using lanthanide chelates to measure interactions between various binding partners. The application of TR-FRET to assay kinase activity was first described by Mathis (1995). A TR-FRET assay was used to measure FLT3D835Y kinase inhibitory activity. The assay panel was run on a Biomek FX liquid handling workstations. To the assay plates containing […] compound or control solutions, 4.5 μL of buffer A (50 mM TRIS-HCl pH 7.4, 2 mM DTT, 0.02% Tween 20, 0.02 mM Na3VO4, H2O nanpure) including a generic concentration of ATP (2 μM f.c.) was added per well, followed by […] of buffer B (4 uM ATP in Buffer A) including a generic concentration of polyEAY (50 nM f.c.), FLT3D835Y kinase, and divalent cations. Final concentration of kinase and cations were: [FLT3D835Y kinase]=5.7 nM, [Mg]=3 mM, [Mn]=3 mM. After 1 hour of incubation the kinase reactions were stopped by the addition of 4.5 μL of stop solution D (50 mM EDTA, 20 mM TRIS-HCl pH 7.4, 0.04% NP-40) immediately followed by 4.5 μL of buffer A (50 mM TRIS-HCl pH 7.4, 2 mM DTT, 0.02% Tween 20, 0.02 mM Na3VO4, H2O nanpure) including the Tb-labeled P-20 antibody to give a total detection volume of […]. After an incubation time of 45 min in the dark, the plates were transferred into the Pherastar fluorescence reader for counting. The effect of compound on the enzymatic activity was obtained from the linear progress curves and determined from one reading (end point measurement).

PKCα = PKCα (Homo sapiens, UniProt P17252); test: PKCα kinase Caliper assay
Procedure: PKCα and cABLT315 Kinase Caliper Assays
Assays were performed in 384 well microtiter plates. Each assay plate contained 8-point serial dilutions for test compounds, as well as two 16-point serial dilutions of staurosporine as reference compound, plus 16 high- and 16 low controls. Liquid handling and incubation steps were done on a Thermo CatX workstation equipped with a Innovadyne Nanodrop Express. Between pipetting steps, tips were cleaned in wash cycles using wash buffer. Plates with terminated kinase reactions were transferred to the Caliper LC3000 workstations for reading. Phosphorylated and unphosphorylated peptides were separated using the Caliper microfluidic mobilitishift technology and Kinase activities were calculated from the amounts of formed phospho-peptide.
1. 0.05 μA Compound (start with 1.8 mM in 90% DMSO/10% H2O)
2. +4.5 μl 2× peptide/ATP solution
3. +4.5 μl 2× enzyme solution
4. Incubate for 60 min at 30° C.
4. +16 μl stop/run buffer
Independent of the kinase, all reactions were done performed in 50 mM HEPES, pH 7.5, 1 mM DTT, 0.02% Tween20, 0.02% BSA, and 0.6% DMSO.

[1] = PKCα Caliper assay, read-out: PKC IC50

Chain of GSK3β (P49841 whole entry, species assumed): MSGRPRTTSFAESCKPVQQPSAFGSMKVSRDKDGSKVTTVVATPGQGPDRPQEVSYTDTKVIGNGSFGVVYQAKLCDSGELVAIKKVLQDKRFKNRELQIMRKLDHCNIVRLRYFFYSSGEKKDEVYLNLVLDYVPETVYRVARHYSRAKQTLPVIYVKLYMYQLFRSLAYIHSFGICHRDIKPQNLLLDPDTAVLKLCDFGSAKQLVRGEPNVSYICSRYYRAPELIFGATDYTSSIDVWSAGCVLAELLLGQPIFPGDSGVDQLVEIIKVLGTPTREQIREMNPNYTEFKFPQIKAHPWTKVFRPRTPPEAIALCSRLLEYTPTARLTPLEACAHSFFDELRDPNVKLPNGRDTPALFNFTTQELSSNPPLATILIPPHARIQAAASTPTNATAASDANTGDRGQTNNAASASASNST

IC50 (GSK3β) [nM]	IC50 (FLT3D835Y kinase) [nM]	IC50 (PKCα; [1]) [nM]	IC50 (PKCα) [nM]	Compound
330	160	550	–	Nc1ncc(-c2ccccc2)nc1C(=O)Nc1cnccc1[C@@H]1C[C@H](N)[C@@H]2CCC[C@@H]2O1 [Example 233, 3-amino-N-(4-((2S,4S,4aS,7aS)-4-aminooctahydrocyclopenta[b]pyran-2-yl)pyridin-3-yl)-6-phenylpyrazine-2-carboxamide]
393	990	–	> 10000	Nc1cc(F)c(-c2c(F)cccc2F)nc1C(=O)Nc1cnccc1[C@H]1C[C@@H](N)[C@@]2(O)CCCC[C@H]2O1 [Example 238, 3-amino-N-(4-((2R,4R,4aS,8aR)-4-amino-4a-hydroxyoctahydro-2H-chromen-2-yl)pyridin-3-yl)-6-(2,6-difluorophenyl)-5-fluoropicolinamide]
270	1200	290	–	CC(C)[C@@H]1O[C@H](c2ccncc2NC(=O)c2nc(-c3ccccc3)cnc2N)C[C@H](N)[C@H]1O [Example 240, 3-amino-N-(4-((2S,4S,5R,6S)-4-amino-5-hydroxy-6-isopropyltetrahydro-2H-pyran-2-yl)pyridin-3-yl)-6-phenylpyrazine-2-carboxamide]
471	1200	> 10000	–	COc1cc(F)c(-c2nc(C(=O)Nc3cnccc3[C@H]3C[C@@H](N)[C@](C)(O)[C@@H](C)O3)ccc2F)c(F)c1 [Example 242, N-(4-((2R,4R,5S,6R)-4-amino-5-hydroxy-5,6-dimethyltetrahydro-2H-pyran-2-yl)pyridin-3-yl)-6-(2,6-difluoro-4-methoxyphenyl)-5-fluoropicolinamide]
870	4100	7200	–	Nc1ncc(-c2ccccc2)nc1C(=O)Nc1cnccc1[C@@H]1C[C@H](N)[C@]2(O)CCCC[C@@H]2O1 [Example 243, 3-amino-N-(4-((2S,4S,4aR,8aS)-4-amino-4a-hydroxyoctahydro-2H-chromen-2-yl)pyridin-3-yl)-6-phenylpyrazine-2-carboxamide]
4.4	5.3	43	–	CC(C)[C@@H]1C[C@H](N)C[C@H](c2ccncc2NC(=O)c2nc(-c3ccccc3)cnc2N)O1 [Example 291, 3-amino-N-(4-((2R,4S,6S)-4-amino-6-isopropyltetrahydro-2H-pyran-2-yl)pyridin-3-yl)-6-phenylpyrazine-2-carboxamide]
44	590	100	–	CC(C)[C@H]1C[C@@H](N)C[C@@H](c2ccncc2NC(=O)c2nc(-c3ccccc3)cnc2N)O1 [Example 292, 3-amino-N-(4-((2S,4R,6R)-4-amino-6-isopropyltetrahydro-2H-pyran-2-yl)pyridin-3-yl)-6-phenylpyrazine-2-carboxamide]
9.4	0.8	40	–	CC1(C)C[C@@H](N)C[C@H](c2ccncc2NC(=O)c2nc(-c3ccccc3)cnc2N)O1 [Example 296, 3-amino-N-(4-((2R,4S)-4-amino-6,6-dimethyltetrahydro-2H-pyran-2-yl)pyridin-3-yl)-6-phenylpyrazine-2-carboxamide]
7.9	23	10	–	CC1(C)C[C@H](N)C[C@@H](c2ccncc2NC(=O)c2nc(-c3ccccc3)cnc2N)O1 [Example 297, 3-amino-N-(4-((2S,4R)-4-amino-6,6-dimethyltetrahydro-2H-pyran-2-yl)pyridin-3-yl)-6-phenylpyrazine-2-carboxamide]
0.9	110	860	–	CCC[C@H]1O[C@@H](c2ccncc2NC(=O)c2nc(-c3ccccc3)cnc2N)C[C@@H](O)[C@@H]1O [Example 340, 3-amino-N-(4-((2R,4R,5S,6R)-4,5-dihydroxy-6-propyltetrahydro-2H-pyran-2-yl)pyridin-3-yl)-6-phenylpyrazine-2-carboxamide]
3	120	650	–	Nc1ncc(-c2ccccc2)nc1C(=O)Nc1cnccc1[C@H]1C[C@@H](O)[C@H](O)[C@@H](CO)O1 [Example 341, 3-amino-N-(4-((2R,4R,5S,6R)-4,5-dihydroxy-6-(hydroxymethyl)tetrahydro-2H-pyran-2-yl)pyridin-3-yl)-6-phenylpyrazine-2-carboxamide]
39	12	71	–	CC[C@@H]1O[C@H](c2ccncc2NC(=O)c2nc(-c3ccccc3)cnc2N)C[C@H](N)[C@H]1O [Example 342, 3-amino-N-(4-((2S,4S,5R,6S)-4-amino-6-ethyl-5-hydroxytetrahydro-2H-pyran-2-yl)pyridin-3-yl)-6-phenylpyrazine-2-carboxamide]
12	1.8	23	–	CC[C@H]1O[C@@H](c2ccncc2NC(=O)c2nc(-c3ccccc3)cnc2N)C[C@@H](N)[C@@H]1O [Example 343, 3-amino-N-(4-((2R,4R,5S,6R)-4-amino-6-ethyl-5-hydroxytetrahydro-2H-pyran-2-yl)pyridin-3-yl)-6-phenylpyrazine-2-carboxamide]
29	10	110	–	C[C@]1(O)[C@H](N)C[C@H](c2ccncc2NC(=O)c2nc(-c3ccccc3)cnc2N)O[C@@H]1C1CC1 [Example 344, 3-amino-N-(4-((2R,4R,5S,6R)-4-amino-6-cyclopropyl-5-hydroxy-5-methyltetrahydro-2H-pyran-2-yl)pyridin-3-yl)-6-phenylpyrazine-2-carboxamide]
370	920	660	–	CC[C@@H]1O[C@H](c2ccncc2NC(=O)c2nc(-c3ccccc3)cnc2N)C[C@H](N)[C@@]1(C)O [Example 345, 3-amino-N-(4-((2S,4S,5R,6S)-4-amino-6-ethyl-5-hydroxy-5-methyltetrahydro-2H-pyran-2-yl)pyridin-3-yl)-6-phenylpyrazine-2-carboxamide]
9.2	8.5	60	–	Nc1ncc(-c2ccccc2)nc1C(=O)Nc1cnccc1[C@H]1C[C@@H](N)[C@H](O)[C@@H](C2CC2)O1 [Example 346, 3-amino-N-(4-((2R,4R,5S,6R)-4-amino-6-cyclopropyl-5-hydroxytetrahydro-2H-pyran-2-yl)pyridin-3-yl)-6-phenylpyrazine-2-carboxamide]
